Experiments:
[1] = system: DLD1 MSH6-deficient cells; assay: Short-term viability assay with or without O6BG; assay type: cell-based, human; conditions: with or without O6BG-induced MGMT depletion
Description: (§1) Short-term Cell Viability Assay.

[2] = system: HCT116 MLH1-/- cells or HCT116 +Chr3 cells; assay: Short-term viability assay with or without O6BG; assay type: cell-based, human
Description: as §1

[3] = system: LN229 MGMT+/- cells with shRNA targeting MSH6, MLH1, PMS2, or MSH3; assay: Short-term viability assay, MMR shRNA lines; assay type: cell-based, human; conditions: shMSH6, shMLH1, shPMS2, shMSH3
[4] = system: linearized pUC19 plasmid DNA; assay: Melting temperature assay; assay type: biochemical; conditions: 100 or 500 µM, 3 h
[5] = system: LN229 MGMT+/-, MMR+/- cells; assay: Cell cycle analysis; assay type: cell-based, human; conditions: 20 µM
Description: Cell Cycle Analysis. Cell cycle analysis was performed using integrated Hoechst nucleic acid dye fluorescence intensity as previously described (51). Briefly, integrated Hoechst fluorescence intensity was log2 transformed and histograms from DMSO-treated cells were used to identify the centers of the 2 N and 4 N DNA peaks. These values were used to normalize the 2 N DNA peak to 1 and the 4 N DNA peak to 2. Cells were then classified by normalized log2 DNA content as G1 (0.75-1.25), S (1.25-1.75), or G2 (1.75-2.5) phase cells. The percentage of cells within each phase of the cell cycle was determined for each treatment condition. The three sets of Hoechst-stained cells corresponding to the three separate DNA foci stains were treated as three independent analyses.

[6] = system: LN229 MGMT+/-, MMR+/- cells; assay: Micronuclei analysis; assay type: cell-based, human; conditions: 20 µM, 48 h
Description: Micronuclei Analysis. An automated image analysis pipeline was developed by YCMD using InCell Analyzer software to quantify micronuclei formation. Nuclei and micronuclei were segmented based on Hoechst nucleic acid dye staining channel. A perinuclear margin was applied around the nuclei to approximate the extent of the cytoplasm and identify micronuclei associated with the parent nucleus. Cells with nuclei associated with at least 1 micronucleus were considered positive.

[7] = system: FANCD2 ubiquitination in LN229 MGMT+/-, MMR+/- cells; assay: Western blot analysis of FANCD2 ubiquitination; assay type: cell-based, human
Description: Western Blotting. For phospho-protein analysis experiments, cells were lysed in 1X RIPA buffer (Cell Signaling Technology, #9806) supplemented with 1X Protease Inhibitor Cocktail (Roche) and 1X PhosSTOP Phosphatase Inhibitor Cocktail (Sigma). For all other western blot analyses, cells were lysed in lysis buffer (50 mM HEPES, 250 mM NaCl, 5 mM EDTA, 1% NP-40) supplemented with 1X Protease Inhibitor Cocktail (Roche). The de-ubiquitination inhibitor N-ethylmaleimide (NEM, 4 mM) was added in FANCD2 ubiquitination analysis experiments. Proteins were separated using NuPAGE 4-12% Bis-Tris or 3-8% Tris-Acetate Gels (Invitrogen) and transferred to Immobilon-P PVDF membrane (Millipore) for western blotting. Membranes were blocked with 5% milk in TBS-T for 1 h prior to primary antibody addition overnight at 4° C. […] Where shown, bands were quantified using ImageJ software.

[8] = system: LN229 MGMT-/MMR+ and MGMT-/MMR- flank tumors; assay: Flank tumor second study: regimens, schedules and routes; assay type: in vivo, mouse; conditions: 5, 15, 25 mg/kg; MWF × 3 weeks, M-F × 1 week; PO, IP
Description: In a second study, mice were randomized and administered either KL-50 (4a) or vehicle (10% cyclodextrin) by oral gavage or intraperitoneal injection on either M-F × 1 or MWF × 3 cycles at 5, 15, or 25 mgs/kg. Caliper measurements were obtained during the dosing period and at least two weeks following treatment. Mice were euthanized if body weight loss exceeded 20% or if tumor volume increased to greater than 2000 mm^3.

[9] = system: LN229 MGMT-/MMR+ and MGMT-/MSH6- flank tumors; assay: Flank tumor third study: large tumors; assay type: in vivo, mouse; conditions: 25 mg/kg PO MWF × 3 weeks, ~350-400 mm^3 tumors
Description: The third study involved MGMT-/MMR+ and MGMT-/MSH6- (shMSH6) LN229 cells. Mice tumors were allowed to grow to a larger average starting volume of ~350 mm^3 before they were randomized and administered either KL-50 (4a; 25 mg/kg MWF × 3 weeks) or vehicle (10% cyclodextrin) by oral gavage. Caliper measurements were obtained during the dosing period and at least two weeks following treatment. Mice were euthanized if body weight loss exceeded 20% or if tumor volume increased to greater than 3000 mm^3.

[10] = system: LN229 MGMT-/MMR- intracranial tumors; assay: Intracranial tumor model; assay type: in vivo, mouse; conditions: 25 mg/kg IP M-F × 1 week

Structure (SMILES): NC(=O)c1ncn2c(=O)n(CCF)nnc12 [KL-50]
- activity in DLD1 cells [1]: toxic to these cells, but only after O^6BG-induced MGMT depletion
- activity in HCT116 cells [2]: selective tumor cell killing specifically in the setting of O^6BG-induced MGMT suppression
- activity in MGMT- LN229 cells lacking other MMR proteins [3]: confirmed
- DNA melting temperature [4]: comparable changes in measured DNA melting temperature
- G2 arrest ([5]; MGMT+/MMR+ cells): moderate G2 arrest
- G2 arrest ([5]; MGMT-/MMR+ cells): increasing G2 arrest on progression from 24 to 48 h
- G2 arrest ([5]; MGMT-/MMR- cells): attenuated G2 arrest
- micronuclei formation [6]: significant increase in micronuclei
- FANCD2 ubiquitination [7]: observed specifically in MGMT- cells
- efficacy and toxicity across regimens [8]: effective and non-toxic
- growth of large tumors [9]: potently suppressed the growth
- intracranial tumor growth [10]: effective
